Results reported in patent publication US20090069237A1, “METHODS AND COMPOSITIONS FOR TREATING CONDITIONS” (priority 2007, published 2009).
Peptide text beside a SMILES is read from it.

Columns and labels:
[1] = assay type: physicochemical
Method: The test article was SEQ ID NO: 1, a white powder, which was delivered in 0.9% saline. The test article formulations were prepared on the day of study and kept at room temperature until dosing. 100 mg/kg at 1 mL/kg=100 mg/mL 1.4 mL of saline added to 141.5 mg of test article, soluble.

[2] = rat, in vivo
Text: Pain is basically managed by two classes of drugs.

[3] = test system: Pseudomonas syringae pv tomato, DC3000; test: Arabidopsis inoculated with virulent pathogen Pst DC3000, disease symptoms; assay type: in vivo, Arabidopsis ecotype Columbia (Col-0); details: 20 μl salicylic acid 1 mM and 20 μl SEQ ID NO: 15 applied together to the leaves
Method: Seeds of Arabidopsis ecotype Columbia (Col-0) were planted in potting soil. Plants were cultivated in a growth chamber with 10-h d (200 μmol m^−2s^−1 at 22° C.) and 14-h night (18° C.) cycles and 80% RH. Once a week plants were supplied with water and modified one-half strength Hoagland nutrient solution: 2 mM KNO 5 mM Ca(NO3)2 and trace elements, pH 7.
A virulent plant pathogen, Pst Pseudomonas syringae pv tomato, DC3000 was grown at 28° C. on King's medium B containing 40 mg/L tetracycline. Plants were inoculated with 1×10^7 cfu/ml of the pathogen in 0.01% Silwet L77 (v/v) (a surfactant) and distilled water 5 weeks after sowing. The bacterial suspension or a control solution (0.01% Silwet L77 in water) was then sprayed on the plant once.
Disease symptoms in Arabidopsis are water-soaked, spreading lesions, sometimes surrounded by chlorotic margin that eventually lead to yield loss and plant death.
To test the efficacy of SEQ ID NO: 15, some healthy and some disease plants were sprayed with salicylic acid in 0.01%. Silwet L77; some healthy and some disease plants were sprayed with SEQ ID NO: 15 in 0.01%. Silwet L77, and some healthy and some disease plants were sprayed with salicylic acid in combination with SEQ ID NO: 15 in 0.01%. Silwet L77. A control group of some healthy and some disease plants were sprayed with water in 0.01%. Silwet L77. […]

[4] = test system: Sauromatum guttatum appendix; test: Heat production by Sauromatum guttatum appendix sections, thermocouple recording; details: second experiment, up to 50 μM, data not shown
Method: In one example, using Sauromatum guttatum as the experimental module, on the day of inflorescence-opening, the Sauromatum appendix (a 20-40 cm-long, slender organ) becomes warm reaching a 32° C. temperature (Skubatz et al., 1991, Plant Physiol. 95:1084-1088). The heat generated by the appendix is generated by the mitochondria. This mitochondrial activity can be triggered by the addition of phenolic compounds, including but not limited to, salicylic acid, aspirin, and 2,6-dihydroxybenzoic acid. Test agents can be applied to the plant and the plant's temperature may be monitored in vivo.
FIG. 4 illustrates modulation of heat generated by aspirin (ASA) in Sauromatum guttatum appendix in the presence of various opioid peptides and the Alzheimer's peptide, Aβ 1-42. One day before heat-production, sections of the appendix were placed in different aqueous solutions containing ASA with or without an opioid peptide. […] Temperature was recorded with thermocouples attached to the section every 5 min. […]
FIG. 5 illustrates modulation of heat generated by salicylic acid (SA) in the presence of human opioid peptides (β-Endorphin, SEQ ID NO: 19 and Neuropeptide AF, SEQ ID NO: 44) and, the Alzheimer's peptide, Aβ 1-42, SEQ ID NO: 49, and, a plant virulent bacterial pathogen (Pst DC3000). […] Temperature was recorded with thermocouples attached to the sections every 5 min. […]

Molecule: CC(C)C[C@H](NC(=O)[C@@H](N)Cc1ccccc1)C(=O)N1CCC[C@H]1C(=O)N[C@@H](CO)C(=O)O [SEQ ID NO: 1, Phe-Leu-Pro-Ser] (H-FLPS-OH; N-terminus and C-terminus assumed)
- solubility in saline [1]: soluble
- effect on brain function [2]: does not adversely affect brain function
- feeding behavior [2]: did not invoke an abnormal feeding behavior

Molecule: O=C(O)c1ccccc1O [salicylic acid]
- systemic resistance to the virulent bacteria [3]: enough to trigger systemic resistance

Molecule: FLPSEFGVDVDR [SEQ ID NO: 2]
- heat generation by the peptide [4]: did not generate heat

Molecule: YGGFL [SEQ ID NO: 15]
- systemic resistance to the virulent bacteria [3]: enough to trigger systemic resistance
